From patent US20250066389A1, “HETEROCYCLIC AMIDES AND METHODS OF USING THE SAME” (Rgenta Therapeutics, Inc., priority 2021, published 2025) come the findings set out here.

What is called pIC50 is the negative decadic logarithm of the IC50, by convention in mol/L.

Each structure is given as a SMILES string. pIC50: −log10 of the molar value. Structures can show the parent of a compound that is named as a salt.

This experiment relates to PMS1. Kind of experiment: Mini-Gene Reporter Assay—PMS1 (firefly luciferase mini-gene reporter transiently transfected into HEK293 cells). Particulars: Homo sapiens, mini-gene firefly luciferase reporter in HEK293 cells; for activation at 5 µM: read-out: PMS1 % Effect at 5 uM. The format is cell-based. The gist of the method: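 HEK293 cells transiently transfected with a mini-gene construct (skipped exon with flanking introns/exons fused to firefly luciferase, pcDNA3.1) are incubated with compounds in duplicate. Exon inclusion raises luminescence; EC50 fitted by Levenberg-Marquardt; effect also scored at 5 μM.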
For orientation: In a reporter assay the amount or activity of a reporter protein is the signal.

With `CCOc1cc2nn(C)cc2cc1C(=O)Nc1cnc(NC[C@H]2CC[C@H](CNC)CC2)nc1` [Compound 400], the activation at 5 µM was under 50%.

The compound `CCOc1cc2nn(C)cc2cc1C(=O)Nc1cc(C)c(N2CCN[C@@H](C)C2)nn1` [Compound 222, (S)-6-ethoxy-2-methyl-N-(5-methyl-6-(3-methylpiperazin-1-yl)pyridazin-3-yl)-2H-indazole-5-carboxamide hydrochloride] showed a pIC50 of 5.00 to 6.00.

`CCOc1cc2nc(C)cn2cc1C(=O)Nc1ccc(N2CCNC(C)CC2)nn1` (stereo not shown) [Compound 257] had a pIC50 of 5.00 to 6.00.

As for `CCOc1cc2nn(C)cc2cc1C(=O)Nc1cnc(NC2CNCC3(CCC3)C2)cn1` (stereo not shown) [Compound 313], the activation at 5 µM is under 50%.

Turning to `Cc1cn2cc(C(=O)Nc3ccc(N4CCNCC4)nn3)c(OC3CCC3)cc2n1` [Compound 205, 7-cyclobutoxy-2-methyl-N-(6-(piperazin-1-yl)pyridazin-3-yl)imidazo[1,2-a]pyridine-6-carboxamide hydrochloride], the pIC50 is over 6.00.

For the compound `CCOc1cc2nc(C)cn2cc1C(=O)Nc1cnc(NCc2cccc(CNC)c2)cn1` [Compound 679], the activation at 5 µM was under 50%.

As to `CCOc1cc2nc(C)cn2cc1C(=O)Nc1cnc(N2CC(N)C(C)(C)C2)cn1` (stereo not shown) [Compound 667], the activation at 5 µM is over 75%.

Compound `CCOc1cc2nn(C)cc2cc1C(=O)Nc1ccc(N2CCN3CCC[C@H]3C2)nn1` [Compound 738, (S)-6-ethoxy-N-(6-(hexahydropyrrolo[1,2-a]pyrazin-2(1H)-yl)pyridazin-3-yl)-2-methyl-2H-indazole-5-carboxamide] showed a pIC50 of 5.00 to 6.00.

On to `CCOc1cn2nc(C)cc2cc1C(=O)Nc1cnc(N2CCOC3(CCNC3)C2)nc1` (stereo not shown) [Compound 577], for which the activation at 5 µM is under 50%.

In the case of `CCOc1cn2nc(C)cc2cc1C(=O)Nc1cnc(N2CCC(CC[C@@H]3CCCN3)CC2)nc1` [Compound 615], the activation at 5 µM is under 50%.

`CCOc1cc2nn(C)cc2cc1C(=O)Nc1cnc(N2CCN[C@@H](C(C)C)C2)cn1` [Compound 360]: the activation at 5 µM is over 75%.

With `CCOc1cc2nc(C)cn2cc1C(=O)Nc1ccc(N2CCC3CCNCC3C2)nn1` (stereo not shown) [Compound 240], the pIC50 is 5.00 to 6.00.

In the case of `CCOc1cc2nn(C)cc2cc1C(=O)Nc1cnc(N2CCOC3(CCNC3)C2)cn1` (stereo not shown) [Compound 341], the activation at 5 µM was under 50%.

The compound `CCOc1cc2nc(C)cn2cc1C(=O)Nc1ccc(N2C[C@@H]3C[C@H]2CN3)nn1` [Compound 285] showed a negative logarithm of the IC50 (pIC50) of 5.00 to 6.00.

With `CCOc1cn2nc(C)cc2cc1C(=O)Nc1cnc(N2CCC3(CNCCO3)C2)nc1` (stereo not shown) [Compound 572], the activation at 5 µM was under 50%.

As for `CCOc1cc2nn(C)cc2cc1C(=O)Nc1cnc(NC[C@H]2CCCNC2)nc1` [Compound 450], the activation at 5 µM was under 50%.

As for `CCOc1cc2nn(C)cc2cc1C(=O)Nc1ccc(N2CCN[C@H](C)C2)nn1` [Compound 750, (R)-6-ethoxy-2-methyl-N-(6-(3-methylpiperazin-1-yl)pyridazin-3-yl)-2H-indazole-5-carboxamide hydrochloride], the activation at 5 µM is over 75%.

Regarding `COc1cc2nc(C)cn2cc1C(=O)Nc1ccc(N2CCNCCC2C)cc1F` (stereo not shown) [Compound 158, N-(2-fluoro-4-(7-methyl-1,4-diazepan-1-yl)phenyl)-7-methoxy-2-methylimidazo[1,2-a]pyridine-6-carboxamide], the pIC50 is over 6.00.

In the case of `CCOc1cn2nc(C)cc2cc1C(=O)Nc1cnc(N2CCC(n3ncc4c3CNC4)CC2)cn1` [Compound 507], the activation at 5 µM was under 50%.

On to `CCOc1cc2nn(C)cc2cc1C(=O)Nc1cnc(N2CC34CCCCC3(CNC4)C2)cn1` (stereo not shown) [Compound 331], for which the activation at 5 µM was under 50%.

Take `Cc1cn2cc(C(=O)Nc3ccc(N4CCN[C@@H](C)C4)cn3)cc(F)c2n1` [Compound 107, (S)-8-fluoro-2-methyl-N-(5-(3-methylpiperazin-1-yl)pyridin-2-yl)imidazo[1,2-a]pyridine-6-carboxamide TFA Salt]: the activation at 5 µM lay within 50 to 75%.

For the compound `CCOc1cn2nc(C)cc2cc1C(=O)Nc1cnc(N2CC(NC)C3(CC3)C2)nc1` (stereo not shown) [Compound 612], the activation at 5 µM was under 50%.

With `CCOc1cc2nc(C)cn2cc1C(=O)Nc1cnc(N2CC(C)NCC2C)nc1` (stereo not shown) [Compound 644], the activation at 5 µM lay in the range of 50 to 75%.

As for `CCOc1cc2nc(C)cn2cc1C(=O)Nc1cnc(N2C[C@@H](F)C[C@H]2CN)cn1` [Compound 672], the activation at 5 µM fell in the range of 50 to 75%.

Compound `COc1cc2nc(C)cn2cc1C(=O)Nc1ccc(N2CCNCC2C)cc1F` (stereo not shown) [Compound 177, N-(2-fluoro-4-(2-methylpiperazin-1-yl)phenyl)-7-methoxy-2-methylimidazo[1,2-a]pyridine-6-carboxamide] had a pIC50 of over 6.00.

Regarding `CCOc1cc2nn(C)cc2cc1C(=O)Nc1cnc(N2CC3(CNCCO3)C2)cn1` [Compound 337], the activation at 5 µM is under 50%.

For the compound `CCOc1cc2nn(C)cc2cc1C(=O)Nc1cnc(NCC2CNC(C)(C)C2)nc1` (stereo not shown) [Compound 408], the activation at 5 µM was under 50%.

As to `CCOc1cc2nc(C)cn2cc1C(=O)Nc1cnc(N[C@@H]2CNC[C@@H]2F)cn1` [Compound 666], the activation at 5 µM lay in the range of 50 to 75%.

For the compound `CCOc1cc2nn(C)cc2cc1C(=O)Nc1cnc(N2CCCC(C)(CN)C2)nc1` (stereo not shown) [Compound 435], the activation at 5 µM was under 50%.

Consider `COc1cc2nc(C)cn2cc1C(=O)Nc1ccc(N2CCNCC3(CC3)C2)cc1F` [Compound 139, N-(2-fluoro-4-(5,8-diazaspiro[2.6]nonan-5-yl)phenyl)-7-methoxy-2-methylimidazo[1,2-a]pyridine-6-carboxamide], for which the activation at 5 µM was over 75%.

As for `CCOc1cc2nn(C)cc2cc1C(=O)Nc1cnc(NCc2nn(C)c3c2CNCC3)nc1` [Compound 388], the activation at 5 µM was under 50%.

`CCOc1cc2nn(C)cc2cc1C(=O)Nc1cnc(NCc2cnn3c2CNCC3)nc1` [Compound 409]: the activation at 5 µM is under 50%.

For `CCOc1cn2nc(C)cc2cc1C(=O)Nc1cnc(NCC2CNCC23CC3)cn1` (stereo not shown) [Compound 496], the activation at 5 µM was over 75%.

With `CCOc1cc2nn(C)cc2cc1C(=O)Nc1cnc(NCC2C=CCN2)nc1` (stereo not shown) [Compound 385], the activation at 5 µM was under 50%.

In turn, `CCOc1nc2nc(C)cn2cc1C(=O)Nc1ccc(N2CCNC3(CC3)C2)nn1` [Compound 725, N-(6-(4,7-diazaspiro[2.5]octan-7-yl)pyridazin-3-yl)-7-ethoxy-2-methylimidazo[1,2-a]pyrimidine-6-carboxamide formic acid] gave a pIC50 of 5.00 to 6.00.

Regarding `CCOc1cn2nc(C)cc2cc1C(=O)Nc1cnc(N2CCN[C@@H](C)C2)nc1` [Compound 596], the activation at 5 µM fell in the range of 50 to 75%.

For `CCOc1cn2nc(C)cc2cc1C(=O)Nc1cnc(N2CCCC2CNC)nc1` (stereo not shown) [Compound 574], the activation at 5 µM was under 50%.

`CCOc1cc2nc(C)cn2cc1C(=O)Nc1ccc(N2CCNC(CC(F)F)C2)nn1` (stereo not shown) [Compound 228] had a pIC50 of over 6.00.

In the case of `COc1cc2nc(C)cn2cc1C(=O)Nc1ccc(N2CCC3(CC2)COCCN3)cc1F` [Compound 133, N-(2-fluoro-4-(4-oxa-1,9-diazaspiro[5.5]undecan-9-yl)phenyl)-7-methoxy-2-methylimidazo[1,2-a]pyridine-6-carboxamide], the pIC50 was over 6.00.

With `CCNC1CCCN(c2ccc(NC(=O)c3cn4cc(C)nc4cc3OCC)nn2)C1` (stereo not shown) [Compound 251], the pIC50 is 5.00 to 6.00.

On to `CCOc1cc2nn(C)cc2cc1C(=O)Nc1cnc(NC2CCNCC2C)cn1` (stereo not shown) [Compound 348], for which the activation at 5 µM lay in the range of 50 to 75%.

`CCOc1cc2nn(C)cc2cc1C(=O)Nc1cnc(N2C[C@@H](C)N[C@@H](C)C2)cn1` [Compound 720, N-(5-((3R,5S)-3,5-dimethylpiperazin-1-yl)pyrazin-2-yl)-6-ethoxy-2-methyl-2H-indazole-5-carboxamide hydrochloride] gave a pIC50 of over 6.00.

As to `CCOc1cc2nn(C)cc2cc1C(=O)Nc1cnc(N2CCCC(CCN)C2)cn1` (stereo not shown) [Compound 353], the activation at 5 µM is under 50%.

With `CCOc1cn2nc(C)cc2cc1C(=O)Nc1ccc(N2C[C@@H](C)N[C@@H](C)C2)nn1` [Compound 761, N-(6-((3R,5S)-3,5-dimethylpiperazin-1-yl)pyridazin-3-yl)-6-ethoxy-2-methylpyrazolo[1,5-a]pyridine-5-carboxamide hydrochloride], the activation at 5 µM was over 75%.

Take `CCOc1nc2nc(C)cn2cc1C(=O)Nc1cnc(N2C[C@@H](C)N[C@@H](C)C2)cn1` [Compound 721, N-(5-((3R,5S)-3,5-dimethylpiperazin-1-yl)pyrazin-2-yl)-7-ethoxy-2-methylimidazo[1,2-a]pyrimidine-6-carboxamide hydrochloride]: the pIC50 was 5.00 to 6.00.

In turn, `CCOc1nc2nc(C)cn2cc1C(=O)Nc1ccc(N2C[C@@H](C)N[C@@H](C)C2)nn1` [Compound 714, N-(6-((3R,5S)-3,5-dimethylpiperazin-1-yl)pyridazin-3-yl)-7-ethoxy-2-methylimidazo[1,2-a]pyrimidine-6-carboxamide hydrochloride] showed a pIC50 of over 6.00.

Consider `CCOc1cc2nn(C)cc2cc1C(=O)Nc1cnc(NCC2CCNCC2(F)F)nc1` (stereo not shown) [Compound 431], for which the activation at 5 µM is under 50%.

For the compound `CCOc1cc2nn(C)cc2cc1C(=O)Nc1cnc(NCC2NCCc3sccc32)nc1` (stereo not shown) [Compound 423], the activation at 5 µM was under 50%.

Consider `CCOc1cc2nn(C)cc2cc1C(=O)Nc1cnc(N(C)CCN2CCNCC2)nc1` [Compound 448], for which the activation at 5 µM was under 50%.

In turn, `COc1cn2nc(C)cc2cc1C(=O)Nc1ccc(N2CCN[C@@H](C)C2)nn1` [Compound 726, (S)-6-methoxy-2-methyl-N-(6-(3-methylpiperazin-1-yl)pyridazin-3-yl)pyrazolo[1,5-a]pyridine-5-carboxamide hydrochloride] showed a pIC50 of 5.00 to 6.00.

Regarding `CCOc1cc2nn(C)cc2cc1C(=O)Nc1cnc(N2CC3(CNCCO3)C2)nc1` [Compound 436], the activation at 5 µM is under 50%.

Regarding `CCOc1cn2nc(C)cc2cc1C(=O)Nc1cnc(N2CCCC3(CCNC3)C2)nc1` (stereo not shown) [Compound 578], the activation at 5 µM is under 50%.
